Experimental data from ChEMBL document CHEMBL2401728, “An unexpected Dimroth rearrangement leading to annelated thieno[3,2-d][1,2,3]triazolo[1,5-a]pyrimidines with potent antitumor activity” (Eur J Med Chem, 2013).

Legend:
Format in all cases: functional
[1] = tested on: MDA-MB-468; experiment: Cytotoxicity against human MDA-MB-468 cells assessed as cellular growth at 10 uM after 48 hrs by SRB assay relative to control
[2] = tested on: BT-549; experiment: Cytotoxicity against human BT549 cells assessed as cellular growth at 10 uM after 48 hrs by SRB assay relative to control
[3] = tested on: T47D; experiment: Cytotoxicity against human T47D cells assessed as cellular growth at 10 uM after 48 hrs by SRB assay relative to control
[4] = tested on: MDA-MB-231; experiment: Cytotoxicity against human MDA-MB-231 cells assessed as cellular growth at 10 uM after 48 hrs by SRB assay relative to control
[5] = tested on: MCF7; experiment: Cytotoxicity against human MCF7 cells assessed as cellular growth at 10 uM after 48 hrs by SRB assay relative to control
[6] = tested on: DU-145; experiment: Cytotoxicity against human DU145 cells assessed as cellular growth at 10 uM after 48 hrs by SRB assay relative to control
[7] = tested on: UO-31; experiment: Cytotoxicity against human UO31 cells assessed as cellular growth at 10 uM after 48 hrs by SRB assay relative to control
[8] = tested on: TK-10; experiment: Cytotoxicity against human TK10 cells assessed as cellular growth at 10 uM after 48 hrs by SRB assay relative to control
[9] = tested on: SN12C; experiment: Cytotoxicity against human SN12C cells assessed as cellular growth at 10 uM after 48 hrs by SRB assay relative to control
[10] = tested on: RXF 393; experiment: Cytotoxicity against human RXF393 cells assessed as cellular growth at 10 uM after 48 hrs by SRB assay relative to control
[11] = tested on: CAKI-1; experiment: Cytotoxicity against human Caki1 cells assessed as cellular growth at 10 uM after 48 hrs by SRB assay relative to control
[12] = tested on: OVCAR-8; experiment: Cytotoxicity against human OVCAR8 cells assessed as cellular growth at 10 uM after 48 hrs by SRB assay relative to control
[13] = Cytotoxicity against human NCI-ADR-RES cells assessed as cellular growth at 10 uM after 48 hrs by SRB assay relative to control
[14] = tested on: OVCAR-5; experiment: Cytotoxicity against human OVCAR5 cells assessed as cellular growth at 10 uM after 48 hrs by SRB assay relative to control
[15] = tested on: OVCAR-4; experiment: Cytotoxicity against human OVCAR4 cells assessed as cellular growth at 10 uM after 48 hrs by SRB assay relative to control
[16] = tested on: OVCAR-3; experiment: Cytotoxicity against human OVCAR3 cells assessed as cellular growth at 10 uM after 48 hrs by SRB assay relative to control
[17] = tested on: UACC-62; experiment: Cytotoxicity against human UACC62 cells assessed as cellular growth at 10 uM after 48 hrs by SRB assay relative to control
[18] = tested on: UACC-257; experiment: Cytotoxicity against human UACC257 cells assessed as cellular growth at 10 uM after 48 hrs by SRB assay relative to control
[19] = tested on: SK-MEL-2; experiment: Cytotoxicity against human SK-MEL-2 cells assessed as cellular growth at 10 uM after 48 hrs by SRB assay relative to control
[20] = tested on: MDA-MB-435; experiment: Cytotoxicity against human MDA-MB-435 cells assessed as cellular growth at 10 uM after 48 hrs by SRB assay relative to control
[21] = tested on: Malme-3M; experiment: Cytotoxicity against human MALME-3M cells assessed as cellular growth at 10 uM after 48 hrs by SRB assay relative to control
[22] = tested on: LOX IMVI; experiment: Cytotoxicity against human LOXIMVI cells assessed as cellular growth at 10 uM after 48 hrs by SRB assay relative to control
[23] = tested on: SNB-75; experiment: Cytotoxicity against human SNB75 cells assessed as cellular growth at 10 uM after 48 hrs by SRB assay relative to control
[24] = tested on: U-251; experiment: Cytotoxicity against human U251 cells assessed as cellular growth at 10 uM after 48 hrs by SRB assay relative to control
[25] = tested on: SNB-19; experiment: Cytotoxicity against human SNB19 cells assessed as cellular growth at 10 uM after 48 hrs by SRB assay relative to control
[26] = tested on: SF-539; experiment: Cytotoxicity against human SF539 cells assessed as cellular growth at 10 uM after 48 hrs by SRB assay relative to control
[27] = tested on: SF-295; experiment: Cytotoxicity against human SF295 cells assessed as cellular growth at 10 uM after 48 hrs by SRB assay relative to control
[28] = tested on: KM12; experiment: Cytotoxicity against human KM12 cells assessed as cellular growth at 10 uM after 48 hrs by SRB assay relative to control
[29] = tested on: HT-29; experiment: Cytotoxicity against human HT-29 cells assessed as cellular growth at 10 uM after 48 hrs by SRB assay relative to control
[30] = tested on: HCT-15; experiment: Cytotoxicity against human HCT15 cells assessed as cellular growth at 10 uM after 48 hrs by SRB assay relative to control
[31] = tested on: HCC 2998; experiment: Cytotoxicity against human HCC2998 cells assessed as cellular growth at 10 uM after 48 hrs by SRB assay relative to control
[32] = tested on: COLO 205; experiment: Cytotoxicity against human COLO205 cells assessed as cellular growth at 10 uM after 48 hrs by SRB assay relative to control
[33] = tested on: NCI-H522; experiment: Cytotoxicity against human NCI-H522 cells assessed as cellular growth at 10 uM after 48 hrs by SRB assay relative to control
[34] = tested on: NCI-H322M; experiment: Cytotoxicity against human NCI-H322M cells assessed as cellular growth at 10 uM after 48 hrs by SRB assay relative to control
[35] = tested on: NCI-H460; experiment: Cytotoxicity against human NCI-H460 cells assessed as cellular growth at 10 uM after 48 hrs by SRB assay relative to control
[36] = tested on: NCI-H23; experiment: Cytotoxicity against human NCI-H23 cells assessed as cellular growth at 10 uM after 48 hrs by SRB assay relative to control
[37] = tested on: NCI-H226; experiment: Cytotoxicity against human NCI-H226 cells assessed as cellular growth at 10 uM after 48 hrs by SRB assay relative to control
[38] = tested on: HOP-92; experiment: Cytotoxicity against human HOP92 cells assessed as cellular growth at 10 uM after 48 hrs by SRB assay relative to control
[39] = tested on: A549; experiment: Cytotoxicity against human A549 cells assessed as cellular growth at 10 uM after 48 hrs by SRB assay relative to control
[40] = tested on: MOLT-4; experiment: Cytotoxicity against human MOLT4 cells assessed as cellular growth at 10 uM after 48 hrs by SRB assay relative to control
[41] = tested on: HL-60(TB); experiment: Cytotoxicity against human HL-60(TB) cells assessed as cellular growth at 10 uM after 48 hrs by SRB assay relative to control
[42] = tested on: K562; experiment: Cytotoxicity against human K562 cells assessed as cellular growth at 10 uM after 48 hrs by SRB assay relative to control
[43] = tested on: CCRF-CEM; experiment: Cytotoxicity against human CCRF-CEM cells assessed as cellular growth at 10 uM after 48 hrs by SRB assay relative to control

O=C(O)CCCn1c2c(sc3ccccc32)c(=O)n2nnc(-c3ccccc3)c12
Activity [1]: 85.92% | Activity [2]: 54.36% | Activity [3]: 78.01% | Activity [4]: 92.52% | Activity [5]: 84.04% | Activity [6]: 94.87% | Activity [7]: 69.07% | Activity [8]: 98.3% | Activity [9]: 88.81% | Activity [10]: 51.92% | Activity [11]: 60.48% | Activity [12]: 77.77% | Activity [13]: 107.52% | Activity [14]: 154.53% | Activity [15]: 93.19% | Activity [16]: 103.59% | Activity [17]: 75.64% | Activity [18]: 111.46% | Activity [19]: 107.41% | Activity [20]: 89.16% | Activity [21]: 106.11% | Activity [22]: 94.14% | Activity [23]: 83% | Activity [24]: 94.66% | Activity [25]: 76.27% | Activity [26]: 91.17% | Activity [27]: 92.89% | Activity [28]: 86.08% | Activity [29]: 92.57% | Activity [30]: 66.61% | Activity [31]: 96.03% | Activity [32]: 110.27% | Activity [33]: 34.84% | Activity [34]: 86.21% | Activity [35]: 74.3% | Activity [36]: 118.45% | Activity [37]: 82.97% | Activity [38]: 107.65% | Activity [39]: 89.47% | Activity [40]: 96.85% | Activity [41]: 113.58% | Activity [42]: 96.49% | Activity [43]: 92.35%

CN1CCN(CCCn2c3c(sc4ncccc43)c(=O)n3nnc(-c4ccccc4)c23)CC1
Activity [1]: -94% | Activity [2]: 76% | Activity [3]: 103% | Activity [4]: -83.53% | Activity [5]: -91% | Activity [6]: -74% | Activity [7]: -90.79% | Activity [8]: -88% | Activity [9]: -55% | Activity [10]: -93% | Activity [11]: -79% | Activity [12]: -48.18% | Activity [13]: -29% | Activity [14]: -15% | Activity [15]: -65% | Activity [16]: -83.15% | Activity [17]: 85% | Activity [18]: -87% | Activity [19]: 99.31% | Activity [20]: -81% | Activity [21]: -82% | Activity [22]: -96.04% | Activity [23]: 48% | Activity [24]: -84% | Activity [25]: -63% | Activity [26]: -95.99% | Activity [27]: -79% | Activity [28]: -79% | Activity [29]: -46.19% | Activity [30]: -63% | Activity [31]: -87% | Activity [32]: -82% | Activity [33]: -76% | Activity [34]: -76% | Activity [35]: -70.68% | Activity [36]: -39% | Activity [37]: 71% | Activity [38]: 42% | Activity [39]: -74.7% | Activity [40]: -50% | Activity [41]: -56% | Activity [42]: -41% | Activity [43]: -45%

O=C(CCCn1c2c(sc3ccccc32)c(=O)n2nnc(-c3ccccc3)c12)NCCc1c[nH]cn1
Activity [1]: -93% | Activity [2]: 4% | Activity [3]: -25.44% | Activity [4]: -64% | Activity [5]: -100% | Activity [6]: -100% | Activity [7]: -97% | Activity [8]: -91% | Activity [9]: -80% | Activity [10]: -70% | Activity [11]: -83.98% | Activity [12]: -50.58% | Activity [13]: 8% | Activity [14]: -91% | Activity [15]: -92.51% | Activity [16]: -96% | Activity [17]: -76% | Activity [18]: -69% | Activity [19]: -90.32% | Activity [20]: -95.09% | Activity [21]: -76.11% | Activity [22]: -96% | Activity [23]: -89% | Activity [24]: -100% | Activity [25]: 27.29% | Activity [26]: -97.26% | Activity [27]: -83% | Activity [28]: -90% | Activity [29]: -100% | Activity [30]: -75% | Activity [31]: 25.66% | Activity [32]: -77% | Activity [33]: -95.79% | Activity [34]: -34.11% | Activity [35]: -93.2% | Activity [36]: -54% | Activity [37]: -14% | Activity [38]: -75.7% | Activity [39]: -75.35% | Activity [40]: 79.44% | Activity [41]: -29% | Activity [42]: -70% | Activity [43]: -58%
